Measurements reported in PMC4709452 (Frontiers in Pharmacology, 2016).

What was measured:
anesthetized rats [1] = assay: Basal cardiovascular parameters in anesthetized, pre-treated rats; type: in vivo, rat; details: 15 min after i.v. bolus (enalaprilat 0.1 mg/kg, Plummer's inhibitor 0.75 mg/kg, icatibant 10 μg/kg, B-9858 20 μg/kg), means ± SEM
Source text: (§1) The femoral arterial catheter implanted to monitor direct blood pressure was connected to a pressure transducer (TSD 104A, Biopac Systems Inc., Goleta, CA, USA) coupled to a computer-based data acquisition system (MP100, Biopac Systems Inc., Goleta, CA, USA) to continuously record pulsate arterial pressure. The animals were maintained under anesthesia and were warmed with a heated pad.
(§2) The mechanism subserving the cardiovascular responses to i.v. injections of increasing doses of the different BK agonists was first investigated in animals pretreated with the ACE inhibitor, enalaprilat. In these experiments, the animals were separated in five groups depending on the agonist tested. Enalaprilat was intravenously administered as bolus (0.1 mg/kg, 0.1 ml) following a 10 min period of baseline measurements of HR and blood pressure. Fifteen minutes later, dose-response curves to BK, BK-His-Leu, B-9972, BK-Arg, or BK-Ala-Pro were obtained in the indicated group of rats, as described above. Further experiments were made in rats pretreated with the Plummer’s inhibitor (mercaptomethyl- 3-guanidinoethylthiopropanoic acid), a high affinity inhibitor of arginine carboxypeptidases that is an arginine analog ([Plummer and Ryan, 1981]). In these experiments, the inhibitor was intravenously administered as bolus (0.75 mg/kg, 0.1 ml) followed 15 min later by the i.v. injection of increasing doses of BK or BK-Arg, in two different groups of rats. […] In these experiments, icatibant was intravenously administered as bolus (10 μg/kg, 0.1 ml) 15 min before the i.v. injection of increasing doses of BK, BK-His-Leu, B-9972, BK-Ala-Pro, or BK-Arg, in separated groups of rats, as above. The doses of different inhibitors were based on preliminary experiments and from studies performed by others ([Ishida et al., 1989]; [Wirth et al., 1991]; [Muto et al., 2003]), with deliberate low dosing for peptidase inhibitors for the sake of their selectivity of action. Whether a component of BK hemodynamic effects is mediated by the B1R was assessed in rats pre-treated with the specific B1R antagonist, B-9858 (20 μg/kg, 0.1 ml). B-9858 (Lys-Lys-[Hyp^3, Igl^5, D-Igl^7, Oic^8]des-Arg^9-BK) is a selective B1R antagonist ([Leeb-Lundberg et al., 2005]) that has been found active at the rat B1R ([Scott et al., 2003]).
Baseline values for MAP and HR measured in the untreated control group or 15 min after i.v. pretreatment with enalaprilat, icatibant or the Plummer’s inhibitor are shown in Table 2. While no significant changes in basal values of MAP were noted between the enalaprilat and Plummer’s inhibitor pretreated groups, a slight but significant reduction in basal MAP was found between the icatibant pretreated group and the control group. Furthermore, slight but significant reductions in basal HR were noted between the icatibant and Plummer’s inhibitor pretreated groups and the control group, while a small significant increase in basal HR was found between the enalaprilat pretreated groups and the control group.

anesthetized rats [2] = assay: In vivo vascular reactivity: hypotensive (MAP) response to i.v. bolus injections; parameters: species or system rat; details: for doses at which the decrease in MAP was significant compared to vehicle: doses tested 0.025-6.4 μg/kg, untreated anesthetized rats, Dunnett's test
Procedure: (§3) At the end of the acclimation period, the rats were anesthetized with sodium pentobarbital (50 mg kg^-1, i.p., supplemented as required) and had two separate catheters implanted; one into the right jugular vein [for intravenous (i.v.) injection] and the other into the left femoral artery (for direct measurement of blood pressure and heart rate (HR). In some experiments, a pulsed Doppler flow probe ([Haywood et al., 1981]) was also implanted around the distal abdominal aorta (below the ileocecal artery) through a midline abdominal incision to monitor changes in hindquarter hemodynamic, according to the method developed by [Gardiner and Bennett (1988)] and as previously described ([Bachelard et al., 1992b]). The probes wires were connected to a pulsed Doppler monitoring system (VF-1 Doppler flowmeter; Crystal Biotech, Holliston, MA, USA) modified to operate with a pulse repetition frequency of 125 kHz ([Gardiner et al., 1990]) and fitted with HVPD-20 modules. The mean Doppler signal represents the average hindquarter blood flow velocity, a relative index of blood flow. […] Experiments started at least 30 min following the end of surgery in anesthetized rats.
as §1
The experiments were initiated after allowing at least 20 min for stabilization. Then, baseline measurements of HR and phasic and mean arterial blood pressure (MAP) were made over a period of 10 min. […] Peptides were dissolved in isotonic saline (0.9% NaCl) containing 0.1% BSA to prevent the adsorption of peptide to the glassware and plastic surfaces. All i.v. injections were given as 100 μl boluses which were washed in with a further 100 μl of saline (the dead space of the catheter). Only one peptide was tested per group of rats and each injection started with saline-BSA 0.1% followed by the lowest dose of peptide. The next dose was administered once all recorded cardiovascular parameters had returned to baseline after the previous injection (usually 2–10 min). At the end of the experiments each animal was euthanized with an overdose of sodium pentobarbitone (240 mg/kg, i.v.).
as §2, with “The doses of different inhibitors were based on preliminary experiments and from studies performed by others ([Ishida et al., 1989]; [Wirth et al., 1991]; [Muto et al., 2003]), with deliberate low dosing for peptidase inhibitors for the sake of their selectivity of action. Whether a component of BK hemodynamic effects is mediated by the B1R was assessed in rats pre-treated with the specific B1R antagonist, B-9858 (20 μg/kg, 0.1 ml). B-9858 (Lys-Lys-[Hyp^3, Igl^5, D-Igl^7, Oic^8]des-Arg^9-BK) is a selective B1R antagonist ([Leeb-Lundberg et al., 2005]) that has been found active at the rat B1R ([Scott et al., 2003]).” left out

anesthetized rats [3] = assay: In vivo vascular reactivity: heart rate changes after i.v. bolus injections; parameters: species or system rat
Procedure: as §3, with “rats. […]” for “rats.”
The experiments were initiated after allowing at least 20 min for stabilization. […] The next dose was administered once all recorded cardiovascular parameters had returned to baseline after the previous injection (usually 2–10 min). […]

[4] = icatibant 10 μg/kg i.v. 15 min before, agonist 0.025-6.4 μg/kg i.v.

`C[C@H](N[C@@H](CCc1ccccc1)C(=O)O)C(=O)N1CCC[C@H]1C(=O)O` [Enalaprilat, enalaprilat] was tested, and the “Basal mean arterial blood pressure (MAP) after pre-treatment” value (“Basal mean arterial blood pressure (MAP)” below) (anesthetized rats [1]; control 103.1 ± 1.8) was 99.2 ± 1.5 and the “Basal heart rate (HR) after pre-treatment” value (shortened to “Basal heart rate (HR)”) (anesthetized rats [1]; control 393 ± 6, in bpm) was 416 ± 6ˆ*.

With “D-Arg-[Hyp^3,Igl^5,Oic^7,Igl^8]-BK [B-9972]” the “effect of enalaprilat pretreatment on the dose-dependent hypotensive response” value (anesthetized rats [2]; enalaprilat 0.1 mg/kg i.v. 15 min before, agonist 0.025-6.4 μg/kg i.v.) was “not affected”, the “half-recovery time of hypotensive episodes compared with a similar dose of BK” value (anesthetized rats [2]; i.v. bolus, for B-9972 the highest dose) was “significantly longer” and the “reduction of apparent hypotensive potency by icatibant” value (anesthetized rats [2]; icatibant 10 μg/kg i.v. 15 min before) was “about 10 fold”. The “effect of icatibant pretreatment on the hypotensive response” value (anesthetized rats [2]; [4]) was “significantly abated”.

“D-Arg-[Hyp^3, Thi^5, D-Tic^7, Oic^8] bradykinin [Icatibant]” was tested, and the “Basal mean arterial blood pressure (MAP)” value (anesthetized rats [1]; control 103.1 ± 1.8, in mmHg) was 95.3 ± 1.6ˆ* and the “Basal heart rate (HR)” value (anesthetized rats [1]; control 393 ± 6, in bpm) was 356 ± 8ˆ**.

For “bradykinin (RPPGFSPFR; Bradykinin; UniProt P01042 381-389, looked up) [BK]”, the “effect of B-9858 (B1R antagonist) pretreatment on the hypotensive response” value (anesthetized rats [2]; B-9858 20 μg/kg i.v.) was “did not significantly modify”, the “effect of Plummer's inhibitor pretreatment on the hypotensive response” value (anesthetized rats [2]; Plummer's inhibitor 0.75 mg/kg i.v. 15 min before) was “no effect” and the “potentiation of the hypotensive effect by enalaprilat pretreatment” value (anesthetized rats [2]; enalaprilat 0.1 mg/kg i.v. 15 min before) was about 15 fold. The “doses at which the decrease in MAP was significant compared to vehicle” value (anesthetized rats [2]; i.v. bolus) was at least 0.4 µg/kg, the “effect of icatibant pretreatment on the hypotensive response” value (anesthetized rats [2]; [4]) was “significantly and extensively inhibited” and the “dose at which a significant bradycardia preceded tachycardia” value (anesthetized rats [3]) was 6.4 µg/kg. For the same compound, the “doses at which tachycardia accompanied the hypotensive response” value (anesthetized rats [3]; doses tested 0.025-6.4 μg/kg, compared with vehicle) was at least 0.4 µg/kg.

des-Arg^9-BK was tested, and the “effect on MAP at the dose of 0.025 μg/kg” value (anesthetized rats [2]; i.v. bolus, compared to vehicle, n = 9) was “no significant effect” and the “doses at which the decrease in MAP was significant compared to vehicle” value (anesthetized rats [2]; i.v. bolus) was at least 0.1 µg/kg.

With `N=C(N)NCCSCC(CS)C(=O)O` (stereo not drawn) [Plummer’s inhibitor, mercaptomethyl-3-guanidinoethylthiopropanoic acid] the “Basal mean arterial blood pressure (MAP)” value (anesthetized rats [1]; control 103.1 ± 1.8) was 107.1 ± 4.7 and the “Basal heart rate (HR)” value (anesthetized rats [1]; control 393 ± 6, in bpm) was 353 ± 17ˆ*.

In the case of “Lys-Lys-[Hyp^3, Igl^5, D-Igl^7, Oic^8]des-Arg^9-BK [B-9858]”, the “Basal mean arterial blood pressure (MAP)” value (anesthetized rats [1]; control 103.1 ± 1.8) is reported as 103.3 ± 6.2 and the “Basal heart rate (HR)” value (anesthetized rats [1]; control 393 ± 6, in bpm (unit assumed)) is reported as 397 ± 11.
